Experimental data taken from ChEMBL document CHEMBL3734752, “Acylhydrazone derivatives as potential anticancer agents: Synthesis, bio-evaluation and mechanism of action” (Bioorg Med Chem Lett, 2015).
≈ marks a conversion by molar mass, not a printed value. Calls of active or inactive are those of the source. The rule behind the calls is not given here.

Tests used:
[1] = system: HepG2; experiment: Cytotoxicity against human HepG2 cells assessed as inhibition of cell proliferation after 72 hrs by MTT assay; type: functional, cell-based; settings: for IC50: HepG2, 72 h
[2] = (§1) Cytotoxicity against human BCG823 cells assessed as inhibition of cell proliferation after 72 hrs by MTT assay; type: functional, cell-based; settings: BCG823, 72 h
[3] = (§2) Cytotoxicity against human HuH7 cells assessed as inhibition of cell proliferation after 72 hrs by MTT assay; type: functional, cell-based; settings: Huh-7, 72 h
[4] = system: Huh-7; experiment: (§3) Cytotoxicity against human HuH7 cells assessed as inhibition of cell proliferation at 40 ug/ml after 72 hrs by MTT assay; type: functional
[5] = system: BCG823; experiment: Cytotoxicity against human BCG823 cells assessed as inhibition of cell proliferation at 40 ug/ml after 72 hrs by MTT assay; type: functional, cell-based
[6] = system: HepG2; experiment: Cytotoxicity against human HepG2 cells assessed as inhibition of cell proliferation at 40 ug/ml after 72 hrs by MTT assay; type: functional, cell-based
[7] = system: BCG823; experiment: as §1; type: functional, cell-based
[8] = system: Huh-7; experiment: as §2; type: functional, cell-based
[9] = system: HepG2; experiment: Induction of apoptosis in human HepG2 cells assessed as late apoptotic cells at 2 times IC50 after 24 hrs by Annexin V-FITC/propidium iodide staining-based flow cytometry (reference value: 0.2 %); type: functional
[10] = system: HepG2; experiment: Induction of apoptosis in human HepG2 cells assessed as early apoptotic cells at 2 times IC50 after 24 hrs by Annexin V-FITC/propidium iodide staining-based flow cytometry (reference value: 1.2 %); type: functional
[11] = system: HepG2; experiment: Induction of apoptosis in human HepG2 cells assessed as late apoptotic cells at IC50 concentration after 24 hrs by Annexin V-FITC/propidium iodide staining-based flow cytometry (reference value: 0.2 %); type: functional
[12] = system: HepG2; experiment: Induction of apoptosis in human HepG2 cells assessed as early apoptotic cells at IC50 concentration after 24 hrs by Annexin V-FITC/propidium iodide staining-based flow cytometry (reference value: 1.2 %); type: functional
[13] = system: HepG2; experiment: Induction of apoptosis in human HepG2 cells assessed as necrotic cells at 2 times IC50 after 24 hrs by Annexin V-FITC/propidium iodide staining-based flow cytometry (reference value: 1.6 %); type: functional
[14] = system: HepG2; experiment: Induction of apoptosis in human HepG2 cells assessed as viable cells at 2 times IC50 after 24 hrs by Annexin V-FITC/propidium iodide staining-based flow cytometry (reference value: 97 %); type: functional
[15] = system: HepG2; experiment: Induction of apoptosis in human HepG2 cells assessed as necrotic cells at IC50 concentration after 24 hrs by Annexin V-FITC/propidium iodide staining-based flow cytometry (reference value: 1.6 %); type: functional
[16] = system: HepG2; experiment: Induction of apoptosis in human HepG2 cells assessed as viable cells at IC50 concentration after 24 hrs by Annexin V-FITC/propidium iodide staining-based flow cytometry (reference value: 97 %); type: functional
[17] = as §3; type: functional; settings: Huh-7, 72 h

Structure (SMILES) | IC50 [1] [mg/L] | IC50 [2] [mg/L] | IC50 [3] [mg/L] | other results
C/C(=N\NC(=O)c1ccc(CSc2nc3ccccc3s2)cc1)c1ccc(C)c([N+](=O)[O-])c1 | > 80 | > 80 | > 80 | 
Cc1cc(C)nc(SCc2ccc(C(=O)N/N=C/c3c[nH]c4ccccc34)cc2)n1 | 34.1 (≈ 82.2 µM) | 35.5 (≈ 85.5 µM) | 23.2 (≈ 55.9 µM) | 
O=C(CSc1nc2ccccc2s1)N/N=C1\C(=O)Nc2ccccc21 | 23.9 (≈ 65 µM) | 17.7 (≈ 48 µM) | 13.1 (≈ 35.6 µM) | inhibition [4]: Active; inhibition [5]: Active; inhibition [6]: Active
O=c1[nH]cc(F)c(=O)[nH]1 [FLUOROURACIL] | 36 (≈ 277 µM) | 17.4 (≈ 134 µM) | 10.4 (≈ 80 µM) | inhibition [1]: Dose-dependent effect; inhibition [7]: Dose-dependent effect; inhibition [8]: Dose-dependent effect
C/C(=N\NC(=O)c1ccc(CSc2nc3ccccc3s2)cc1)c1ccc([N+](=O)[O-])cc1 | 35.7 (≈ 77.2 µM) | 31.3 (≈ 67.7 µM) | 4.46 (≈ 9.64 µM) | 
C/C(=N\NC(=O)c1ccc(CSc2nc(C)cc(C)n2)cc1)c1ccc(F)cc1 | 4.85 (≈ 11.9 µM) | 3.88 (≈ 9.5 µM) | 3.25 (≈ 7.96 µM) | inhibition [1]: Dose-dependent effect; inhibition [7]: Dose-dependent effect; inhibition [4]: Active; Activity [9]: 2.3%; Activity [10]: 16.5%; Activity [11]: 1.4%; Activity [12]: 10.3%; Activity [13]: 4.9%; Activity [14]: 76.3%; inhibition [5]: Active; inhibition [6]: Active; Activity [15]: 4.5%; Activity [16]: 83.8%
C/C(=N\NC(=O)CSc1nc2ccccc2s1)c1ccc(C)c([N+](=O)[O-])c1 | 33 (≈ 82.3 µM) | 17.8 (≈ 44.5 µM) | 10.1 (≈ 25.1 µM) | inhibition [1]: Dose-dependent effect; inhibition [7]: Dose-dependent effect; inhibition [4]: Active; inhibition [8]: Dose-dependent effect; inhibition [5]: Active; inhibition [6]: Active
O=C1Nc2ccccc2/C1=N/NC(=O)c1ccc(CSc2nc3ccccc3s2)cc1 | 5.71 (≈ 12.8 µM) | 11.9 (≈ 26.7 µM) | 4.58 (≈ 10.3 µM) | inhibition [1]: Dose-dependent effect; inhibition [7]: Dose-dependent effect; inhibition [4]: Active; Activity [9]: 2.2%; Activity [10]: 14.5%; Activity [11]: 3.7%; Activity [12]: 5.5%; Activity [13]: 5.6%; Activity [14]: 77.7%; inhibition [5]: Active; inhibition [6]: Active; Activity [15]: 1.6%; Activity [16]: 89.3%
COc1cc(/C=N/NC(=O)c2ccc(CSc3nc(C)cc(C)n3)cc2)cc(OC)c1OC | 33.3 (≈ 71.3 µM) | 36.8 (≈ 78.8 µM) | 17.4 (≈ 37.3 µM) | 
O=C(CSc1nc2ccccc2s1)N/N=C/c1c[nH]c2ccccc12 | > 80 | > 80 | 32.9 (≈ 89.7 µM) | inhibition at 40 µg/mL [17]: 55%
O=C(N/N=C/c1c[nH]c2ccccc12)c1ccc(CSc2nc3ccccc3s2)cc1 | > 80 | > 80 | 7.74 (≈ 17.5 µM) | inhibition at 40 µg/mL [17]: 74%
C/C(=N\NC(=O)c1ccc(CSc2nc(C)cc(C)n2)cc1)c1ccc(C)c([N+](=O)[O-])c1 | > 80 | > 80 | > 80 | 
COc1cc(/C=N/NC(=O)c2ccc(CSc3nc4ccccc4s3)cc2)cc(OC)c1OC | > 80 | > 80 | > 80 | 
COc1cc(/C=N/NC(=O)CSc2nc3ccccc3s2)cc(OC)c1OC | > 80 | > 80 | > 80 | 
C/C(=N\NC(=O)CSc1nc2ccccc2s1)c1ccc([N+](=O)[O-])cc1 | > 80 | 35.7 (≈ 92.4 µM) | 39.7 (≈ 103 µM) | 
